Data reported in patent US20020034725A1, “SENSITIZATION OF CELLS TO RADIATION AND AND CHEMOTHERAPY” (priority 1996, published 2002).

Columns and labels:
H-ras = settings: cited from earlier work
FTase = FTase (Homo sapiens, UniProt P49354+P49356); settings: cited from earlier work
Rap1A = settings: cited from earlier work; for inhibition of Rap1A processing: whole cells
wild type c-H-ras = assay: Western blot of ras farnesylation in untransformed REF and MR4 cells; assay type: cell-based, rat; settings: MR4 cells
Description: (§1) The oncogene-transfected cells used in this study were all derived from early passage rat embryo fibroblast (REF) by transfection with the pEJ plasmid containing the H-ras gene isolated from the EJ bladder carcinoma. This vector was introduced by calcium phosphate DNA transfer into primary REF, either alone or together with the pMC29 vector containing v-myc. One clone containing both the introduced H-ras gene and the v-myc genes is 3.7 (McKenna et al., 1990, Cancer Res. 50:97-102). 4R and 5R cells were obtained as rare transformants after transfection with the pEJ plasmid alone (McKenna et al., 1993, supra). MR4 cells were immortalized by transfection with an expression vector comprising v-myc linked to a neomycin-resistant selectable marker (McKenna et al., 1991, Radiat. Res. 125:283-287). REF-GG cells were obtained by transforming REF cells with a chimeric H-ras(v12) in which the CAAX motif is CVLL. All cell lines were mycoplasma free.
(§2) Cells were lysed in culture dishes with 1 x reducing Laemmli sample buffer. Samples were boiled, sheared and clarified by centrifugation at 14,000 rpm in a microfuge before storage at −20° C. Samples containing equal amounts of protein were separated on a 12% SDS polyacrylamide gel and electrophoretically transferred to nitrocellulose membranes. Membranes were blocked for 1-2 hours in PBS containing 0.1% Tween-20 and 5% powdered milk before antibody addition. Membranes were probed with monoclonal pan-ras antibody AB-4 (Oncogene Science, Uniondale, N.Y.) at a concentration of 0.5 μg/ml, or with monoclonal H-ras antibody LA069 (1:5000 dilution; Quality Biotech, Camden, N.J.). Detection of protein was accomplished using the ECL chemiluminescence kit (Amersham, Arlington Heights, Ill.). Images were digitized using an Arcus II scanner, and figures were assembled using Adobe Photoshop 3.0.

H-ras^v12 CVLL = assay: Western blot of prenylation of chimeric H-ras in REF-GG cells; assay type: cell-based, rat; settings: 24 hours, preliminary results
Description: as §1
Cells were lysed in culture dishes with 1 x reducing Laemmli sample buffer. Samples were boiled, sheared and clarified by centrifugation at 14,000 rpm in a microfuge before storage at −20° C. Samples containing equal amounts of protein were separated on a 12% SDS polyacrylamide gel and electrophoretically transferred to nitrocellulose membranes. […]

H-ras^v12 = assay: Western blot of H-ras farnesylation in H-ras transformed REF cells (3.7, 4R, 5R); assay type: cell-based, rat; settings: 5R cells, dose of 32 μM
Description: as §1, §2
Transformed REF cells derived from the R5 cell line were treated with 5 μm FTI-277 to establish a time course for the accumulation of unfarnesylated H-ras. Prenylated forms of ras migrate more rapidly than unprenylated ras on SDSpolyacrylamide gels (Gutierrez et al., 1989, EMBO J. 8:1093-1098; Farh et al., 1995, Arch. Biochem. Biophys. 18:113-121). This shift in motility was used to assess the prenylation status of H-ras after farnesyltransferase inhibitor treatment.

GGTase I = GGTase I (Homo sapiens, UniProt P49354+P53609); settings: cited from earlier work
K-ras = assay: Western blot of K-ras prenylation in SW480 and Panc-1 cells; assay type: cell-based, human; settings: 8 μM GGTI-298 alone
Description: FIG. 17A is an image of a Western blot depicting inhibition by FTI-277 of K-ras prenylation in human SW480 colon carcinoma cells. SW480 cells were treated with the indicated concentrations of FTI-277 (μM) for 48 hours. Samples were harvested and cell lysates were analyzed by Western blotting using either a H-ras monoclonal antibody (top) or a K-ras monoclonal antibody (bottom). Arrows indicate unfarnesylated ras bands.
FIG. 18A is an image of a Western blot depicting the specific inhibition of K-ras prenylation by combined FTI-277 and GGTI-298 treatment. Log phase cultures of human pancreatic carcinoma cells (Panc-1) and colon carcinoma cells (SW480) were treated with 5 μM FTI and 8 μM GGTI 298 for 48 hours. Cell samples were then harvested and cell lysates were prepared for Western blot analysis using monoclonal antibodies to K-ras and nuclear lamin B. The electrophoretic mobility of the K-ras mutant in SW480 is slower than that of the mutant K-ras in Panc-1 cells.

REF-GG cells = assay: SF2 by limiting dilution analysis of clonogens; assay type: cell-based, rat; settings: 8 μM GGTI-298
Description: FIG. 14B comprises two graphs depicting clonogenic survival of REF-GG cells following treatment with GGTI-298 and irradiation. REF-GG cells were plated at 1 to 5 cells per well in microtiter plates in the absence (top panel) or presence (bottom panel) of 8 μM of the geranylgeranyltransferase inhibitor, GGTI-298. Cells were then irradiated with 2 Gray or were mock irradiated. Cells were re-fed after 24 hours with medium that contained no inhibitor, thus diluting the inhibitor to 0.8 μM. These cells were then incubated for two weeks prior to scoring for colony formation. The data are presented as the natural log of the fraction of negative wells. The surviving fraction at 2 Gray was determined from the differences in the slopes obtained by linear regression of analysis of irradiated and unirradiated cells. The surviving fraction at 2 Gray calculated for cells irradiated after GGTI-298 treatment was 0.64. Control cell surviving fraction after 2 Gray was 0.91. The correlation coefficient for linear regression analysis (r^2) was greater than 0.95 in all cases.
Cells were irradiated with the indicated doses of ionizing radiation and were treated with FTI-277 for 24 hours after irradiation (FIG. 14A). […] The shoulders of the survival curves were reduced as were the overall slopes of the survival curves. […]

Compound: 2-hydroxyfarnesylphosphonic acid
- H-Ras processing (H-ras): inhibits H-Ras processing
- FTase inhibition (FTase): inhibit FTase

Compound: COC(=O)[C@H](CCSC)NC(=O)[C@H](/C=C\[C@@H](/C=C/[C@@H](N)CS)C(C)C)Cc1ccccc1 [B1086]
- FTase inhibition (FTase): capable of inhibiting FTase

Compound: CSCC[C@H](NC(=O)c1ccc(NC[C@@H](N)CS)cc1)C(=O)O [FTI-249]
- FTase inhibition (FTase): potent FTase inhibitor

Compound: CSCC[C@H](NC(=O)c1ccc(NC[C@@H](N)CS)cc1-c1ccccc1)C(=O)O [FTI-276]
- FTase inhibition (FTase): inhibited Ftase activity

Compound: COC(=O)[C@H](CC(C)C)NC(=O)c1ccc(NC[C@@H](N)CS)cc1-c1ccccc1 [GGTI-286]
- inhibition of Rap1A processing (Rap1A): potent inhibitor of posttranslational processing of Rap1A
- migration of endogenous wild-type c-H-ras (wild type c-H-ras): no effect on the migration of this protein
- lowest dose with effective inhibition of geranylgeranylation of chimeric H-ras^v12 (H-ras^v12 CVLL): 4 µM
- inhibition of farnesylated H-ras^v12 (CVLS) (H-ras^v12): only partially inhibited

Compound: CC(C)C[C@H](NC(=O)c1ccc(NC[C@@H](N)CS)cc1-c1ccccc1)C(=O)O [GGTI-287]
- increase in potency of inhibition of GGTase I (GGTase I; relative to GGTI-279): 20 fold
- increase in potency of inhibition of FTase (FTase; relative to GGTI-279): 20 fold

Compound: CC(C)C[C@H](NC(=O)c1ccc(NC[C@@H](N)CS)cc1-c1cccc2ccccc12)C(=O)O [GGTI-297]
- GGTase I inhibition (GGTase I): inhibitors of GGTase I and FTase
- potency, less potent than GGTI-287 (GGTase I): 10 fold
- selectivity for GGTase I over FTase (GGTase I; in vitro): 5 fold
- FTase inhibition (FTase): inhibitors of GGTase I and FTase

Compound: COC(=O)[C@H](CC(C)C)NC(=O)c1ccc(NC[C@@H](N)CS)cc1-c1cccc2ccccc12 [GGTI-298]
- prenylation of K-ras (K-ras): no effect on prenylation of K-ras
- Rap1A protein processing (Rap1A; concentration of 10 μM): completely inhibiting Rap1A protein processing
- inhibition of Rap1A processing (Rap1A): as potent as GGTI-286
- GGTase I inhibition (GGTase I): inhibitors of GGTase I and FTase
- H-ras processing (H-ras; concentration of 10 μM): without affecting H-ras processing
- FTase inhibition (FTase): inhibitors of GGTase I and FTase
- SF2 (surviving fraction at 2 Gray) (REF-GG cells): 0.64

Compound: CC[C@H](C)[C@@H](CO[C@@H](Cc1ccccc1)C(=O)N[C@@H](CCS(C)(=O)=O)C(=O)OC)NC[C@@H](N)CS [L-739,749]
- FTase inhibition (FTase): very potent inhibitors of FTase

Compound: CC[C@H](C)[C@@H](CO[C@@H](Cc1ccccc1)C(=O)N[C@@H](CCS(C)(=O)=O)C(=O)O)NC[C@@H](N)CS [L-739,750]
- FTase inhibition (FTase): very potent inhibitors of FTase

Compound: CC[C@H](C)[C@@H](CO[C@@H](Cc1ccccc1)C(=O)N[C@@H](CCS(C)(=O)=O)C(=O)OC(C)C)NC[C@@H](N)CS [L-744,832]
- farnesylation of endogenous H-ras (wild type c-H-ras; highest dose used): less susceptible to farnesylation inhibition

Compound: COCC[C@@H]1CN(C(=O)c2cccc3ccccc23)CCN1C[C@H](N)CS [L-745,631]
- FTase activity in whole cells (H-ras; whole cells): inhibits FTase activity in whole cells
- mode of FTase inhibition (FTase): competitive with respect to H-Ras binding to FTase

Compound: O=C(Cc1ccncc1)N1CCC(=C2c3ccc(Cl)cc3CCc3cccnc32)CC1 [SCH-44342]
- mode of FTase inhibition (FTase): competitive inhibitor of FTase

Compound: (bz-(0)-His-Tyr-Ser [PD-15169]
- FTase inhibition (FTase): inhibits FTase activity

Compound: farnesylmethyl-hydroxyphosphinylmethyl phosphoric acid
- FTase inhibition (FTase): inhibit FTase
